Reference: ChEMBL document CHEMBL1255251, “Effects of Escherichia coli lipopolysaccharide on telithromycin pharmacokinetics in rats: inhibition of metabolism via CYP3A” (Antimicrob Agents Chemother, 2008)

What was measured:
Rattus norvegicus [1] = test: AUC in Sprague-Dawley rat at 50 mg/kg, iv pretreated with Escherichia coli lipopolysaccharide (Rvb=1570 +/- 240 ug/min/ml); type: ADME, organism-based, Plasma; set-up: dose 50 mg/kg, route intravenous; conditions: in vivo
[2] = Half life in Sprague-Dawley rat at 50 mg/kg, iv pretreated with Escherichia coli lipopolysaccharide (Rvb=159 +/- 56.3 min); type: ADME, organism-based; set-up: dose 50 mg/kg, route intravenous; conditions: in vivo
[3] = Clearance in Sprague-Dawley rat at 50 mg/kg, iv pretreated with Escherichia coli lipopolysaccharide (Rvb=32.4+/- 5.25 ml/min/kg); type: ADME, organism-based; set-up: dose 50 mg/kg, route intravenous; conditions: in vivo
[4] = Renal clearance in Sprague-Dawley rat at 50 mg/kg, iv pretreated with Escherichia coli lipopolysaccharide (Rvb=5.29 +/- 0.643 ml/min/kg); type: ADME, organism-based, Kidney; set-up: dose 50 mg/kg, route intravenous; conditions: in vivo, read-out: CL_renal
Rattus norvegicus [5] = test: Nonrenal clearance in Sprague-Dawley rat at 50 mg/kg, iv pretreated with Escherichia coli lipopolysaccharide (Rvb=27.2 +/- 5.02 ml/min/kg); type: ADME, organism-based; set-up: dose 50 mg/kg, route intravenous; conditions: in vivo
[6] = Apparent volume of distribution in Sprague-Dawley rat at 50 mg/kg, iv pretreated with Escherichia coli lipopolysaccharide (Rvb=4,950 +/- 1160 ml/kg); type: ADME, organism-based; set-up: dose 50 mg/kg, route intravenous; conditions: in vivo, read-out: Vdss(app)
Rattus norvegicus [7] = test: AUC in Sprague-Dawley rat at 50 mg/kg, po pretreated with Escherichia coli lipopolysaccharide (Rvb=609 +/- 323 ug/min/ml); type: ADME, organism-based, Plasma; set-up: dose 50 mg/kg, route oral; conditions: in vivo
[8] = Half life in Sprague-Dawley rat at 50 mg/kg, po pretreated with Escherichia coli lipopolysaccharide (Rvb=123 +/- 63.4 min); type: ADME, organism-based; set-up: dose 50 mg/kg, route oral; conditions: in vivo
[9] = Cmax in Sprague-Dawley rat at 50 mg/kg, po pretreated with Escherichia coli lipopolysaccharide (Rvb=2.35 +/- 1.19 ug/ml); type: ADME, organism-based; set-up: dose 50 mg/kg, route oral; conditions: in vivo
[10] = Tmax in Sprague-Dawley rat at 50 mg/kg, po pretreated with Escherichia coli lipopolysaccharide (Rvb=180 min); type: ADME, organism-based; set-up: dose 50 mg/kg, route oral; conditions: in vivo
[11] = Renal clearance in Sprague-Dawley rat at 50 mg/kg, po pretreated with Escherichia coli lipopolysaccharide (Rvb=4.21 +/- 1.81 ml/min/kg); type: ADME, organism-based, Kidney; set-up: dose 50 mg/kg, route oral; conditions: in vivo, read-out: CL_renal
[12] = Oral bioavailability in Sprague-Dawley rat at 50 mg/kg, po pretreated with Escherichia coli lipopolysaccharide (Rvb=38.8%); type: ADME, organism-based; conditions: in vivo
[13] = Drug excretion in Sprague-Dawley rat urine assessed as unchanged drug at 50 mg/kg, iv after 24 hrs pretreated with Escherichia coli lipopolysaccharide (Rvb=16.5 +/- 2.32 %); type: ADME, organism-based; set-up: dose 50 mg/kg, route intravenous; conditions: read-out: Drug uptake
[14] = Drug excretion in Sprague-Dawley rat urine assessed as unchanged drug at 50 mg/kg, po after 24 hrs pretreated with Escherichia coli lipopolysaccharide (Rvb=4.78 +/- 3.28 %); type: ADME, organism-based; set-up: dose 50 mg/kg, route oral; conditions: read-out: Drug uptake
[15] = Drug absorption in Sprague-Dawley rat gastrointestinal tract at 50 mg/kg, iv after 24 hrs pretreated with Escherichia coli lipopolysaccharide (Rvb=8.53 +/- 4.64 %); type: ADME, organism-based; set-up: dose 50 mg/kg, route intravenous
[16] = Drug absorption in Sprague-Dawley rat gastrointestinal tract at 50 mg/kg, po after 24 hrs pretreated with Escherichia coli lipopolysaccharide (Rvb=5.73 +/- 4.57 %); type: ADME, organism-based; set-up: dose 50 mg/kg, route oral

AUC (Rattus norvegicus [1]): 2880 µg/min/mL
half-life [2]: 2.55 h
clearance [3]: 19.4 mL/min/kg
CL renal [4]: 4.27 mL/min/kg
CL (Rattus norvegicus [5]): 15.1 mL/min/kg
Vd [6]: 3.28 L/kg
AUC (Rattus norvegicus [7]): 1460 µg/min/mL
half-life [8]: 2.33 h
Cmax [9]: 5030 ng/mL
Tmax [10]: 3 h
CL renal [11]: 3.17 mL/min/kg
bioavailability [12]: 50.7%
dose excreted at 24 h [13]: 23.8%
dose excreted at 24 h [14]: 9.54%
percent of dose recovered from gastrointestinal tract at 24 h [15]: 5.31%
percent of dose recovered from gastrointestinal tract at 24 h [16]: 9.63%
SMILES: CC[C@H]1OC(=O)[C@H](C)C(=O)[C@H](C)[C@@H](O[C@@H]2O[C@H](C)C[C@H](N(C)C)[C@H]2O)[C@](C)(OC)C[C@@H](C)C(=O)[C@H](C)[C@H]2N(CCCCn3cnc(-c4cccnc4)c3)C(=O)O[C@]12C [TELITHROMYCIN]
